{"source": "paper PMC7496097", "about": "“Establishment of a system for finding inhibitors of ε RNA binding with the HBV polymerase” (Genes to Cells, 2020)", "molecules": {"B1": {"name": "epsilon dBdL RNA (central bulge and apical loop deleted) (structured_RNA)", "RNA": "UCUCAUGUUCAUGUCCUAGCCUCCAAUUGGGUGGCUUUGGGGCAUGGACAUUGAC"}, "B2": {"name": "epsilon WT RNA (structured_RNA)", "RNA": "UCUCAUGUUCAUGUCCUACUGUUCAAGCCUCCAAGCUGUGCCUUGGGUGGCUUUGGGGCAUGGACAUUGA"}}, "key": {"[1]": {"biological_target": "T1, Strep‐TP‐spacer‐RT‐His8 (HBVpol 1‐690aa; TP‐RT) (Hepatitis B virus ar/Japan/S-207/1988, UniProt Q9YZR5)", "T1 construct": "gene P; residues 1-690 of HBV polymerase (TP, spacer, RT); no polymerase activity detected", "T1 sequence (Q9YZR5 1-690)": "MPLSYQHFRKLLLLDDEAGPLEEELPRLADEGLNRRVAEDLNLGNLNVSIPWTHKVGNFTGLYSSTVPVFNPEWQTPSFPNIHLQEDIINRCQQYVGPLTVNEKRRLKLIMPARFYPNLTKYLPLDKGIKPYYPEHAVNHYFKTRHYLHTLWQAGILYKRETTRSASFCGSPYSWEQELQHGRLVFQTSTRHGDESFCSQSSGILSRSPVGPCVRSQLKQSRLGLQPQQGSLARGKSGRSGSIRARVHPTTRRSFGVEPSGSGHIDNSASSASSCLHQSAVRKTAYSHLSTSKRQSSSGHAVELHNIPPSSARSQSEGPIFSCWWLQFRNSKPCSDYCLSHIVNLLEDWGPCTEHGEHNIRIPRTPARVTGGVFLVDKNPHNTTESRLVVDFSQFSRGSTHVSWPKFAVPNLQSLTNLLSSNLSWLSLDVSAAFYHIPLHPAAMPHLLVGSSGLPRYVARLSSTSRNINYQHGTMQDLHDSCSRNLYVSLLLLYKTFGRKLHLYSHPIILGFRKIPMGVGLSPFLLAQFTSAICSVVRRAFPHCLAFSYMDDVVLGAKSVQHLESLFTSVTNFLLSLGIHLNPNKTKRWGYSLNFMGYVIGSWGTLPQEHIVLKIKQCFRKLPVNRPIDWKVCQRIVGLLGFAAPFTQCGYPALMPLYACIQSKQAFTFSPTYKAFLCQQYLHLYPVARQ", "experiment": "surface plasmon resonance", "settings": "binding considered nonspecific by the authors (also binds GFP control); unreliable"}, "[2]": {"biological_target": "T1, Strep‐TP‐spacer‐RT‐His8 (HBVpol 1‐690aa; TP‐RT)", "experiment": "plate assay, inhibition of DIG-labelled epsilon RNA binding to immobilised protein, luminescence", "settings": "5 pmol DIG-epsilon RNA WT, pH 7.5, room temperature, 3 hr; binding considered nonspecific by the authors; unreliable"}, "[3]": {"biological_target": "T2, Strep‐TP‐spacer‐RT‐His8 (HBVpol 1‐690aa; TP‐RT) (Hepatitis B virus ar/Japan/S-207/1988, UniProt Q9YZR5)", "T2 construct": "gene P; residues 1-690 of HBV polymerase (TP, spacer, RT); no polymerase activity detected", "experiment": "plate assay, inhibition of DIG-labelled epsilon RNA binding to immobilised protein, luminescence", "settings": "5 pmol DIG-epsilon RNA WT, pH 7.5, room temperature, 3 hr"}, "[4]": {"biological_target": "T2, Strep‐TP‐spacer‐RT‐His8 (HBVpol 1‐690aa; TP‐RT)", "experiment": "surface plasmon resonance", "type": "binding"}, "[5]": {"biological_target": "T3, Strep-TP-spacer-RT-His8 (HBV polymerase TP-spacer-RT), refolded (Hepatitis B virus, UniProt Q9YZR5 1-690)", "T3 sequence": "T1 sequence (Q9YZR5 1-690)", "experiment": "streptavidin plate binding assay (anti-DIG-HRP luminescence); refolded protein; 5 pmol RNA; 50 mM Tris-HCl pH 7.5, 150 mM NaCl, 1 mM EDTA, 0.05% NP-40, 1 mg/ml BSA, 1 ug/ml poly(I/C), 0.1% protease inhibitor cocktail, 2 mM DTT; room temperature, 3 h (competition 30 min)", "settings": "protein: recombinant, tags: N-terminal Strep, self-annealed"}, "[6]": {"biological_target": "T4, His6-SUMO-TP (Hepatitis B virus, UniProt Q9YZR5 1-177)", "T4 sequence": "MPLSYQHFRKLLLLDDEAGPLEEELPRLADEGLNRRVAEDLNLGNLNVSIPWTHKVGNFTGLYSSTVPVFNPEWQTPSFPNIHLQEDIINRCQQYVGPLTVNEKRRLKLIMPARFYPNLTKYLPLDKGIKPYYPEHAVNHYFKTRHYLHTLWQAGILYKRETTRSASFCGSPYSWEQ", "experiment": "nickel plate binding assay (anti-DIG-HRP luminescence); 5 pmol RNA; no specific binding; 50 mM Tris-HCl pH 7.5, 150 mM NaCl, 1 mM EDTA, 0.05% NP-40, 1 mg/ml BSA, 1 ug/ml poly(I/C), 0.1% protease inhibitor cocktail, 2 mM DTT; room temperature, 3 h (competition 30 min)", "settings": "protein: recombinant; tags: N-terminal His6-SUMO; hairpin with central bulge and apical loop, self-annealed"}}}
{"molecule": "NC(Cc1cc(O)c(O)cc1O)C(=O)O", "note": "(racemic) [6‐hydroxy‐DL‐DOPA]", "values": [{"measurement": "KD", "setting": "[1]", "value": 11, "unit": "nM"}, {"measurement": "IC50", "setting": "[2]", "value": "~ 6.6 µM"}]}
{"molecule": "CCCCCCCC/C=C\\CCCCCCCC(=O)NCCc1ccc(O)c(O)c1", "note": "[N‐oleoyldopamine]", "values": [{"measurement": "IC50", "setting": "[3]", "value": "~410", "unit": "nM"}, {"measurement": "Kd", "setting": "[4]", "value": 72, "unit": "nM"}]}
{"molecule": "B1", "values": [{"measurement": "binding result", "setting": "[5]; hairpin", "value": "no binding"}]}
{"molecule": "B2", "values": [{"measurement": "binding result", "setting": "[6]", "value": "no binding"}, {"measurement": "binding result", "setting": "[5]; hairpin with central bulge and apical loop", "value": "binds"}]}
